{"source": "patent US9598393B2", "about": "“Structural variants of mycolactones for use in modulating inflammation, immunity and pain” (priority 2011, dated 2017)", "key": {"T cell trafficking": {"system": "T cell trafficking", "conditions": "Guenin-Macé et al., 2011; cited from earlier work"}, "[1]": {"system": "IL-2 production by Jurkat T cells", "experiment": "Immunosuppressive activity: activation-induced IL-2 production, ELISA", "format": "cell-based, human", "conditions": "for Cytokine production (M.A.: mean absorbance) (C) % relative to control: PMA + calcium ionophore, IL-2 ELISA", "experimental": "(C) The immunosuppressive activity of mycolactone and variants was measured on Jurkat T cells (ATCC®; TIB-152™ clone E6-1), as models of human T lymphocytes. Cells were inoculated in 96-well plates (5×10^5 cells/well in RPMI 1640 medium supplemented with 10% fetal calf serum and 2 mM L-Glutamine) then incubated with serial dilutions of the various compounds for 4 h, and stimulated for 20 h with 50 ng/ml phorbol-12-myristate-13-acetate (PMA) and 1 μg/ml calcium ionophore. The production of IL-2 was then assessed in culture supernatants by ELISA."}, "macrophages": {"system": "macrophages", "conditions": "Coutanceau et al., 2005; cited from earlier work"}, "[2]": {"system": "CD62-L receptor expression by human peripheral blood cells (PBLs)", "experiment": "T cell homing: expression of CD62-L receptor, flow cytometry", "format": "cell-based", "experimental": "(D) The effect of mycolactone and variants on T cell homing was assessed through their inhibitory effect on the expression of CD62-L receptor by human peripheral blood cells (PBLs). Human PBLs were isolated from total blood by Ficoll density gradient centrifugation. They were incubated in 96-well plates (10^5 cells/well in RPMI 1640 medium supplemented with 10% fetal calf serum and 2 mM L-Glutamine) with mycolactone or variant for 72 h. Cells were then fixed for 20 min in 4% paraformaldehyde (PFA) and stained with an anti-CD62-L antibody coupled with phycoerythrin in a solution of PBS, BSA 0.5%, saponin 0.05%, then analysed by flow cytometry."}, "[3]": {"system": "epithelial HeLa cell line", "experiment": "Cytopathic activity, MTT assay (effect on global cell metabolic activity)", "format": "cell-based, human", "experimental": "(A) The cytopathic activity of mycolactone and variants was assessed in a [3-(4,5-Dimethylthiazol-2-yl)-2,5-Diphenyltetrazolium Bromide] (MTT) assay, using the epithelial HeLa cell line (ATCC®; CCL-2) as a model. Briefly, HeLa cells were plated in 96-well plates (10^4 cells/well) in Dulbecco's Modified Eagle culture medium supplemented with 10% fetal calf serum and 2 mM L-Glutamine. After 16 h, mycolactone or variants dilutions (final concentration 0.4-8 μM) were added to the wells, and incubated with the cells for 48 h, prior to the addition of MTT at 50 μg/ml. After 4 h, culture supernatants were removed and the formed formazan crystals dissolved in dimethyl sulfoxide (DMSO) for absorbance measurement."}, "dendritic cells": {"system": "dendritic cells", "conditions": "Coutanceau et al., 2007; cited from earlier work"}, "[4]": {"experiment": "Formalin-induced acute pain model", "format": "in vivo", "conditions": "intraperitoneally 60 minutes before formalin, Mycolactone 0.5 mg/kg", "experimental": "The analgesic properties of Mycolactone and variant 22 were tested in the formalin-induced acute pain model (Encyclopedia of Psychopharmacology, Volume 2, p. 111).\nBriefly, Mycolactone and variant 22 were administered intraperitoneally at 0.5 and 5 mg/kg respectively, 60 minutes before the subcutaneous injection of 10 μl of a 5% formalin solution of the right hind-leg. Two negative control groups, injected with PBS (neutral) or ethanol vehicle (vehicle) were tested in the same conditions. A group injected with 3 mg/kg morphin 15 minutes before formalin injection was used as a positive reference.\nThe time spent in licking/biting and the number of jumps during the early phase (0-5 min) and the late phase (10-40 min) were recorded, as indicators of acute and inflammatory pain, respectively. The graphs in FIG. 5 compare the global score of pain (rank sum of licking/biting time and jump number) in the five groups of animals (Mann-Whitney test on trimmed means; n≧6; *P<0.05 **P<0.01 vs. neutral; # P<0.05, # P<0.01 vs. vehicle."}}}
{"substance": "Mycolactone [reference compound]", "values": [{"measurement": "T cell trafficking in vivo", "setting": "T cell trafficking", "value": "severely impairs T cell trafficking"}, {"measurement": "Cytokine production (M.A.: mean absorbance) (C) % relative to control", "setting": "[1]; 0.4 μM, Jurkat T cells", "value": 99, "unit": "%"}, {"measurement": "Cytokine production (M.A.: mean absorbance) (C) % relative to control", "setting": "[1]; 4 μM, Jurkat T cells", "value": 100, "unit": "%"}, {"measurement": "Cytokine production (M.A.: mean absorbance) (C) % relative to control", "setting": "[1]; 8 μM, Jurkat T cells", "value": 100, "unit": "%"}, {"measurement": "IC50", "setting": "[1]; Jurkat T cells, IL-2, % inhibition relative to control, read-out: Cytokine production (C): IC50 value (concentration at which the compound induces 50% of mycolactone maximal activity)", "value": 100, "unit": "nM"}, {"measurement": "activation-induced production of IL-2 by human lymphocytes", "setting": "[1]; at concentrations >0.4 μM", "value": "complete blockade"}, {"measurement": "Cytokine production (C): corresponding % of mycolactone activity (in brackets)", "setting": "[1]; relative to mycolactone (100%)", "value": 100, "unit": "%"}, {"measurement": "release of inflammatory TNF by macrophages", "setting": "macrophages", "value": "blocks the release of inflammatory TNF"}, {"measurement": "CD62-L expression (MFI: mean fluorescence intensity) (D) % relative to control", "setting": "[2]; 0.4 μM, human PBLs, 72 h", "value": 100, "unit": "%"}, {"measurement": "CD62-L expression (MFI: mean fluorescence intensity) (D) % relative to control", "setting": "[2]; 4 μM, human PBLs, 72 h", "value": 100, "unit": "%"}, {"measurement": "CD62-L expression (MFI: mean fluorescence intensity) (D) % relative to control", "setting": "[2]; 8 μM, human PBLs, 72 h", "value": 100, "unit": "%"}, {"measurement": "expression of CD62-L", "setting": "[2]; at concentrations >0.4 μM", "value": "totally suppressed"}, {"measurement": "IC50", "setting": "[2]; human PBLs, 72 h, % inhibition relative to control, read-out: CD62-L expression (D): IC50 value (concentration at which the compound induces 50% of mycolactone maximal activity)", "value": "< 30", "unit": "nM"}, {"measurement": "CD62-L expression (D): corresponding % of mycolactone activity (in brackets)", "setting": "[2]; relative to mycolactone (100%)", "value": 100, "unit": "%"}, {"measurement": "Metabolic activity (MA: mean absorbance) (A) % relative to control", "setting": "[3]; 0.4 μM, HeLa cells, 48 h, MTT", "value": 70, "unit": "%"}, {"measurement": "Metabolic activity (MA: mean absorbance) (A) % relative to control", "setting": "[3]; 4 μM, HeLa cells, 48 h, MTT", "value": 80, "unit": "%"}, {"measurement": "Metabolic activity (MA: mean absorbance) (A) % relative to control", "setting": "[3]; 8 μM, HeLa cells, 48 h, MTT", "value": 100, "unit": "%"}, {"measurement": "IC50", "setting": "[3]; HeLa cells, 48 h, MTT, % inhibition relative to control, read-out: Metabolic activity (A): IC50 value (concentration at which the compound induces 50% of mycolactone maximal activity)", "value": 3500, "unit": "nM"}, {"measurement": "cell viability", "setting": "[3]; at concentrations >0.4 μM", "value": "markedly reduced cell viability"}, {"measurement": "Metabolic activity (A): corresponding % of mycolactone activity (in brackets)", "setting": "[3]; relative to mycolactone (100%)", "value": 100, "unit": "%"}, {"measurement": "production of chemotactic signals by dendritic cells", "setting": "dendritic cells", "value": "inhibits the production of chemotactic signals"}, {"measurement": "activity against acute pain (global score of pain, early phase 0-5 min)", "setting": "[4]", "value": "significant activity"}, {"measurement": "activity against inflammatory pain (global score of pain, late phase 10-40 min)", "setting": "[4]; variant 22 5 mg/kg", "value": "significant activity"}]}
